From article PMC7016952, “Characterization of the Menin-MLL Interaction as Therapeutic Cancer Target” (Cancers, 2020)

Experiments:
menin = target: T1, menin (Homo sapiens, UniProt O00255); assay: Isothermal Titration Calorimetry (ITC) on purified menin; assay type: binding
T1 construct: purified menin (1–615 with GST-tag cleaved as described above); GST (TEV cleavable) (N, cleaved yes); made in house; host or cells: E. coli BL21 (DE3)
T1 sequence (O00255 1-615 isoform O00255-1): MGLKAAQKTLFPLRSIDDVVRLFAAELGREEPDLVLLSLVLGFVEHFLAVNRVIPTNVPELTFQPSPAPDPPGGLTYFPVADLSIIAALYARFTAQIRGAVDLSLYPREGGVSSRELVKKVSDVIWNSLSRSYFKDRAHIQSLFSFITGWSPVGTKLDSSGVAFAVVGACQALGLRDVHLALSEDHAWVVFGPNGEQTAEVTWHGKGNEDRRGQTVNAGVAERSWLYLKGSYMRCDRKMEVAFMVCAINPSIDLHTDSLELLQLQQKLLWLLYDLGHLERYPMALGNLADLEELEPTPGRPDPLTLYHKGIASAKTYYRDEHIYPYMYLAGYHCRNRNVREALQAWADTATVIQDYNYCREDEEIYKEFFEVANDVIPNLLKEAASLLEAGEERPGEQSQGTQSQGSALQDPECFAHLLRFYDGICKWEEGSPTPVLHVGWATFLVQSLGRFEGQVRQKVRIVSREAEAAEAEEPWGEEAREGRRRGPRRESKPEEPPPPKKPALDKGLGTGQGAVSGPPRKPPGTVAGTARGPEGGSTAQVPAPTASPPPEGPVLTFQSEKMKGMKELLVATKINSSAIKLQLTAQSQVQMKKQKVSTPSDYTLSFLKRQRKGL
Experimental: Cloning of expression vectors for recombinant menin was performed as follows. […] Proteins were expressed in E. coli BL21 (DE3) following 0.1 mM IPTG induction at 17 °C overnight. For purification, cell pellets were resuspended in buffer A (50 mM Tris pH 7.5, 300 mM NaCl, 2 mM DTT). Cells were lysed using a high pressure Microfluidics apparatus and the cell debris pelleted by centrifugation. The supernatant was applied to a GST column (GE Healthcare, Chicago, IL, USA), washed with two column volumes of washing buffer A and eluted with Buffer B (Buffer A plus 15 mM reduced glutathione). If necessary, the purification tag was cleaved off with the addition of His-TEV protease (1:20 mass ratio) during overnight incubation in buffer A. His-TEV was removed by IMAC column rebinding and final protein purification of either GST-cleaved or uncleaved menin-1 was performed by size exclusion chromatography using a HiLoad 16/60 Superdex 200 (GE Healthcare) column in buffer C (Buffer A but 50 mM NACl).
The compound was dissolved in 100% DMSO to a concentration of 10 mM and subsequently diluted to a final concentration of 5 µM in ITC Buffer. Isothermal Titration Calorimetry (ITC) was performed at 25 °C in a Microcal PEAQ-ITC (Malvern Panalytical). […] Reference Power was set to 6 μcal/s. Data were collected on high feedback mode. Analysis was performed with a single binding site model in the Microcal PEAQ-ITC Analysis Software (Malvern Panalytical).

MOLM-13 cells = assay: Proliferation inhibition, MOLM-13; assay type: cell-based, human
PANC-1 cells = assay: RNA-seq differential gene expression, PANC-1; assay type: cell-based; conditions: PANC-1, 5 µM, 48 h
Experimental: (§1) Total RNA was isolated using RNeasy-Plus Mini kit (Qiagen, Hilden, Germany). RNA (1 μg) was reverse transcribed using SuperScript III First-Strand Synthesis SuperMix (Life Technologies) and the generated cDNA was analyzed with commercial primers (Supplementary Materials Table S1) by qRT-PCR using TaqMan Fast Advanced Master Mix (Life Technologies). For the RNA-seq study, ZR-75-1, BT474, PANC-1, MiaPaCa-2, 22RV1, JMSU-1, DLD-1, SW1463, LoVo and G401 cells were treated with 5 µM BAY-155 or DMSO for 48 h prior to RNA extraction. After 48 h of 5 µM BAY-155 or DMSO treatment, MCF7, VCaP and LNCaP cells were stimulated for further 12 h with 0.1 nM of E2 (ß-Estradiol) or 1 nM R1881, respectively. MCF7, VCaP and LNCaP cells were cultured in starvation medium (containing 5 µM BAY-155 or DMSO) 6 h before stimulation. RNA was isolated using RNeasy-Plus Mini kit (Qiagen). The purified RNA was used for library preparation (Illumina, San Diego, CA, USA. TruSeq Stranded mRNA Kit) and the generated libraries were sequenced (Illumina, HiSeq2500 HTv4, SR, dual-indexing, 50 cycles).
RNA-seq reads were aligned to hg38 using STAR aligner. Protein-coding genes with more than 10 reads in more than three samples were used for the analysis (total samples N = 86; genes N = 13,003). […]

VCaP cells = assay: RNA-seq after R1881 stimulation, VCaP; assay type: cell-based, human
Experimental: as §1
RNA-seq reads were aligned to hg38 using STAR aligner. Protein-coding genes with more than 10 reads in more than three samples were used for the analysis (total samples N = 86; genes N = 13,003). DESeq2 was used to find genes differentially expressed upon treatment by the menin inhibitor in each cell line compared to DMSO or hormonal treatment (for MCF-7, LNCaP and VCaP cell lines). […] GSEA analysis was run on the pre-ranked list based on logFC in prostate (VCaP and LNCaP) and breast (MCF7) cell lines. Data are available at GEO under accession number GSE136272.

KYSE-150 xenograft = KYSE-150 xenograft efficacy; assay type: in vivo, mice; conditions: 120 mg/kg QD p.o.
Experimental: (§2) Tumor cells were injected subcutaneously into the flanks of 6- to 9-week old animals. Efficacy studies in xenograft models were performed at Bayer or EPO GmbH (Berlin-Buch, Germany) using NMRI nu/nu, SCID, BALB/c Nude female mice or SCID male mice (VCaP tumors). All animal studies were conducted in accordance with the animal welfare laws and were approved by the State Office for Health and Social Affairs Berlin (LAGeSo). Experiments were run under the animal license B3600a0007. Compound treatment started at a predefined tumor size or burden or at a predefined day after cell inoculation. BAY-155 was administered orally (p.o.) at various doses and regorafenib, tamoxifen and enzalutamide (resuspended in PEG400/H2O 6/4 or PEG400/EtOH 9/1) were used as control treatment for RKO, MCF7 and VCaP xenografts, respectively. Subcutaneous tumor volumes were determined by caliper measurement.

RKO xenograft = RKO xenograft efficacy; assay type: in vivo, mice
Experimental: as §2

## Cc1c(CN2CCC3(CC2)CN(c2ncnc4sc(CC(F)(F)F)cc24)C3)ccc2c1cc(C#N)n2CC(N)=O [BAY-155]
menin
  Kd: 75 nM
menin; ITC
  stoichiometry factor N: 1.06
MOLM-13 cells
  fold improved proliferation inhibition vs MI-503: 6.3 fold
PANC-1 cells
  number of differentially expressed genes: 346 genes
VCaP cells
  GSEA of androgen-regulated gene sets: significant reversal of androgen-induced gene expression changes
VCaP cells; 5 µM, R1881
  genes down-regulated by androgen stimulation that were elevated: 182 genes
  genes up-regulated by androgen stimulation that were repressed: 36 genes
KYSE-150 xenograft
  tumor volume T/C: 0.67
  tumor weight: significant decrease in tumor weight
RKO xenograft
  tumor volume and weight (anti-growth effects): no significant anti-growth effects
